Reference: article PMC11134331, “Cell-active small molecule inhibitors validate the SNM1A DNA repair nuclease as a cancer target” (Chemical Science, 2024)
Where two headings read alike, the source gives them in different places.

Legend:
SNM1A = target: T1, SNM1A (Homo sapiens, UniProt Q6PJP8); experiment: gel-based nuclease assay, SNM1A; type: biochemical; parameters: DNA encoding for the MBL and β-CASP domains of SNM1A (aa 676–1040) was cloned into the baculovirus transfer vector pFB-LIC-Bse; inferred from vector pFB-LIC-Bse and the IMAC purification; made in house; host or cells: Sf9 insect cells (baculovirus)
T1 sequence (Q6PJP8 676-1040): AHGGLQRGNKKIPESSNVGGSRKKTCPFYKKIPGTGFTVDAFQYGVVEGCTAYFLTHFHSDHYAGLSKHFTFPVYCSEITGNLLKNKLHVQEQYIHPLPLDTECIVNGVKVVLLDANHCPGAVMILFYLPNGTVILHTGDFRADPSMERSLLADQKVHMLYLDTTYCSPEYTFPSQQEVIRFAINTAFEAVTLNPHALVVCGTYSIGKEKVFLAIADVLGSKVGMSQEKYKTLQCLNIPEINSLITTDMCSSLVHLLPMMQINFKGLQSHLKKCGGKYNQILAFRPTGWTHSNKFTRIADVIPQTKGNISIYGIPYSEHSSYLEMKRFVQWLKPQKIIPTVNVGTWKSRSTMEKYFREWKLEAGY
Text: (§1) To validate the inhibition of SNM1A, SNM1B, and SNM1C observed in the fluorescence-based screening assays, we then performed gel-based assays using 3′ terminally-labelled oligonucleotide substrates that enable both quantitative and qualitative (visual) assessment of the pattern of inhibition, for a subset of compounds. Importantly, whereas the fluorescence-based assay measures a single hydrolytic event at the substrate terminus, the gel-based nuclease assay informs on the pattern of digestion of the entire 51-mer substrate DNA over time.
(§2) Standard exonuclease assays were carried out in a 10 μL final volume containing 20 mM HEPES-KOH, pH 7.5, 50 mM KCl, 0.5 mM TCEP, 10 mM MgCl2, 0.05% (v/v) Triton X-100, 5% (v/v) glycerol, and SNM1 proteins as indicated. Inhibitors were dissolved in DMSO and diluted immediately prior to the reaction in the above buffer. Inhibitors were serially diluted two-fold from 100 μM. The DMSO concentration was kept constant at 0.1% (v/v) in the final reaction mixture. Inhibitors were incubated with the indicated SNM1 enzyme for 10 minutes at room temperature; reactions were initiated by addition of 10 nM DNA substrate and incubated at 37 °C for 20 min. Reactions were quenched by addition of 5 μL stop solution (95% formamide, 10 mM EDTA, 0.25% (v/v) xylene cyanol, 0.25% (v/v) bromophenol blue) and heated at 95 °C for 3 min. Reactions were analysed by 20% denaturing polyacrylamide gel electrophoresis solution of 19 : 1 acrylamide:bis-acrylamide, BioRad and 7 M urea (Sigma Aldrich) in 1 × TBE (Tris-borate EDTA) buffer. Electrophoresis was carried out at 525 V for 75 minutes; gels were subsequently fixed for 60 minutes in a 50% (v/v) methanol, 10% (v/v) acetic acid solution, and dried at 80 °C for two hours under vacuum. Dried gels were exposed to a Kodak Phosphor imager screen and scanned using a Typhoon 9500 instrument (GE Healthcare), scanned images were quantified using ImageJ.

[1] = tested on: γH2AX foci in RPE-1 cells; experiment: microscopic analysis of damage-induced subnuclear foci, RPE-1 cells; type: cell-based, human
Protocol: To assess the number of nuclear foci following cisplatin/inhibitor treatments, cells were plated in glass bottom dishes (as above) and allowed to attach. Following treatment, cells were fixed with 4% (v/v) formaldehyde in PBS, blocked with immunofluoresence (IF) blocking buffer (5% horse serum, 1% saponin in PBS) for 1 h, then incubated with primary antibodies at the desired concentrations in IF blocking buffer (overnight, 4 °C).
Images were imported into ImageJ and foci were counted using a macro adjusting for staining levels between experiments. Anti-γH2AX antibodies were a mouse monoclonal (Millipore; JBW301).

SNM1B = target: T2, SNM1B (Homo sapiens, UniProt Q9H816); experiment: gel-based nuclease assay, SNM1B; type: biochemical; conditions: 1 nM SNM1B
T2 construct: for the MBL and β-CASP domains of SNM1B (aa 1–335) into baculoviral expression vectors pFB-CT10HF-LIC; made in house; host or cells: Sf9 insect cells (baculovirus)
T2 sequence (Q9H816 1-335): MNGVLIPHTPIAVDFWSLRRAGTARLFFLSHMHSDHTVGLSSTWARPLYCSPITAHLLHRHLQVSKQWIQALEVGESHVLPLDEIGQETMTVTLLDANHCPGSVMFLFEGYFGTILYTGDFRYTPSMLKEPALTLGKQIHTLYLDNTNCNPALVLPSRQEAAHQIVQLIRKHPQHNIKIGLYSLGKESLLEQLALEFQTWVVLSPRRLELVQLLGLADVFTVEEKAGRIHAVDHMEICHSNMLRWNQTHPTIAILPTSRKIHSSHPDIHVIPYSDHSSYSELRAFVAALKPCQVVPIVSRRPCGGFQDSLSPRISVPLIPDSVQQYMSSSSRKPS
Text: as §1, §2
Suppl. Figure 10. Increasing concentrations (as indicated, in μM) of compounds incubated with 1 nM SNM1B or 2.5 nM SNM1C (room temperature, 10 min), before initiating nuclease reaction by addition of ssDNA (37 °C, 20 min). Products were analysed by 20% denaturing PAGE. Gels are representative versions from a minimum of three independent experimental repeats.
(1 picture or pasted object on this page, not shown here)

Structure (SMILES): C[C@H](Nc1nc(NCc2ccco2)nc2ccc(Cl)cc12)C(=O)NO [compound 19]
- inhibition of SNM1A in gel-based assay (SNM1A; 0.5 nM SNM1A): inhibits each of SNM1A–C
- IC50 (SNM1A; Suppl. Figure 11C, three independent experiments, read-out: SNM1A IC50 estimated from densitometric analysis of gel based assays): 7.6 µM
- IC50 (SNM1A; direct quantification of ratio between intact substrate and digestion product, read-out: SNM1A IC50 estimated from gel-based assay): ~8 µM
- average γH2AX foci count at 24 hours ([1]; RPE-1, cisplatin treated with 50 μM 19): 21.2 ± 0.7 foci
- increase of average γH2AX foci count following pretreatment ([1]; RPE-1, cisplatin treated, 24 hours): 2 fold
- inhibition of SNM1B in gel-based assay (SNM1B): inhibits each of SNM1A–C
